Patent US11865128B2, “Aminoglycosides and uses thereof in treating genetic disorders” (Technion Research & Development Foundation Limited, priority 2010, dated 2024)
In brackets after ≈: the same amount, converted by molar mass. Where two headings read alike, the source gives them in different places.

Assays:
[1] = test system: Eukaryotic system (eukaryotic cytoplasmic ribosome); assay: Eukaryotic translation inhibition, coupled transcription/translation, luciferase detection; type: biochemical; conditions: for Prokaryotic versus Eukaryotic selectivity IC50^Euk/IC50^Pro: ratio of eukaryotic to prokaryotic translation inhibition IC50
From the text: Prokaryotic and eukaryotic translation inhibition was quantified in coupled transcription/translation assays by using active luciferase detection, performed as described hereinabove. […] In all biological tests, all tested aminoglycosides were in their sulfate salt forms. The concentrations reported refer to that of the free amine form of each aminoglycoside.
(§1) In all biological experiments conducted, all tested aminoglycosides were in their sulfate salt forms. The concentrations reported in Table 3 refer to that of the free amine form of each aminoglycoside. Prokaryotic and eukaryotic translation inhibition was quantified in coupled transcription/translation assays as previously described. The half-maximal concentration (IC50) values were obtained from fitting concentration response curves to the data of at least three independent experiments, using GraFit 5 software.

[2] = Cell toxicity LC50 in HFF cells; type: cell-based; conditions: human, read-out: Cell toxicity LC50 HFF
Method: (§2) In order to ensure suitable cell viability for each of the tested compounds at the concentrations tested, cell toxicity was evaluated for each compound by measuring the half-maximal-lethal concentration value (LC50 values) in HEK-293 and HFF (human foreskin fibroblasts) cells.
(§3) The percentages of cell viability were calculated as the ratio between the numbers of living cells in cultures grown in the presence of the tested compounds, versus cultures grown under the identical protocol but without the tested compound. The results represent averages of at least three independent experiments.
(§4) The half-maximal lethal concentration (LC50) values were obtained from fitting concentration-response curves to the data of at least three independent experiments, using GraFit 5 software.

[3] = Cell toxicity LC50 in HEK-293 cells; type: cell-based; conditions: human, read-out: Cell toxicity LC50 HEK-293
Method: as §2, §3, §4

B. subtilis ATCC6633 = assay: Antibacterial activity MIC, double-microdilution; type: cell-based, Bacillus subtilis
E. coli R477/100 = assay: Antibacterial activity MIC, double-microdilution; type: cell-based, Escherichia coli
[4] = test system: nonsense mutation constructs R3X, R245X, G542X, W1282X, Q70X, R3381X (PCDH15, CFTR, IDUA, Dystrophin); assay: In vitro stop codon readthrough assay, p2Luc dual luciferase, TNT reticulocyte lysate; type: biochemical; conditions: cell-free, mutations tested; comparison in words from FIGS. 2, 3, 5-7
From the text: DNA fragments derived from PCDH15, CFTR, Dystrophin and IDUA cDNAs, including the tested nonsense mutation or the corresponding wild type (wt) codon, and four to six upstream and downstream flanking codons were created by annealing following pairs of complementary oligonucleotides:
The fragments were inserted in frame into the polylinker of the p2Luc plasmid between either BamHI and SacI (p.R3X and p.R245X), or SalI and SacI (all the rest) restriction sites.
For the in vitro readthrough assays, the obtained plasm ids, with addition of the tested aminoglycosides were transcribed and translated using the TNT Reticulocyte Lysate Quick Coupled Transcription/Translation System. Luciferase activity was determined after 90 minutes of incubation at 30° C., using the Dual Luciferase Reporter Assay System (Promega™).
Initially, the influence of the chiral C5″-methyl group on readthrough potential was evaluated on the pseudo-trisaccharides NB118 and NB119 by using a dual luciferase reporter assay system as described hereinabove. Briefly, DNA fragments were cloned between BamHI and SacI restriction sites of the p2luc vector and the obtained constructs were transcribed and translated using TNT quick coupled transcription/translation system. The amount of the translated products was evaluated using the dual luciferase reporter assay system and used to calculate the suppression level.

[5] = target: Prokaryotic system (prokaryotic ribosome); assay: Prokaryotic translation inhibition, coupled transcription/translation, luciferase detection; type: biochemical
Method: Prokaryotic and eukaryotic translation inhibition was quantified in coupled transcription/translation assays by using active luciferase detection, performed as described hereinabove. […] All the experiments were performed in duplicates and analogous results were obtained in three different experiments. In all biological tests, all tested aminoglycosides were in their sulfate salt forms. The concentrations reported refer to that of the free amine form of each aminoglycoside.
as §1, with “software. All the experiments were performed in duplicates and analogous results were obtained in three different experiments.” for “software.”

human fibroblast cells = conditions: background; cited from earlier work
[6] = test system: Prokaryotic system (prokaryotic ribosome); conditions: shown previously; cited from earlier work
[7] = test system: nonsense mutation constructs R3X, R245X, Q70X, W1282X, G542X in HEK-293 cells; assay: Ex vivo stop codon readthrough assay, p2luc constructs transfected to HEK-293 cells; type: cell-based, human; conditions: ex vivo in HEK-293, all the mutations tested, FIGS. 4, 8-10
Method: For the ex vivo readthrough assays, the constructs harboring the R3X, R245X, Q70X and W1282X mutations were transfected to HEK-293 cells with Lipofectamine 2000 (Invitrogen) and addition of the tested compounds was performed 6 hours post transfection. The cells were harvested following 16 hours of incubation with the tested aminoglycosides. Stop codon readthrough was calculated as previously described (see, Grentzmann, G. et al., RNA, 1998, 4, p. 479).
The constructs were transfected into a human embryonic kidney cell line (HEK-293) and incubated with varying concentrations of NB122, NB123, NB54 and the control drug gentamicin, and the results are presented in FIGS. 4A-D.
As described hereinabove, the constructs of p2luc plasmid harboring the R3X, R245X, Q70X and W1282X mutations were transfected to HEK-293 cells using lipofectamine2000 and the tested compounds were added 6 hours post transfection. Cells were harvested after 16 hours incubation and luciferase activity was determined using the dual luciferase reporter assay system (Promega™). Stop codon readthrough was calculated as described previously, and the results are averages of at least three independent experiments.

[8] = test system: HFF (human foreskin fibroblasts) cells; assay: Cell toxicity LC50 in HFF cells; type: cell-based; conditions: Table 2
Method: as §2, §3, §4

HEK-293 cells = assay: Cell toxicity LC50 in HEK-293 cells; type: cell-based; conditions: Table 2
Method: as §2, §3, §4

[9] = Table 2, read-out: Translation Inhibition Eukaryotic System IC50
[10] = Table 3, read-out: Translation Inhibition IC50^Euk
[11] = Table 2, read-out: Translation Inhibition Prokaryotic system IC50
[12] = Table 3, read-out: Translation Inhibition IC50^Pro
[13] = Table 1, read-out: Translation inhibition Eukaryotic System IC50
[14] = HFF (human foreskin fibroblast) cells, Table 1
[15] = Bacillus subtilis, ATCC6633, Table 1, free amine concentration, sulfate salts tested, read-out: Antibacterial activity MIC B. subtilis ATCC6633
[16] = Escherichia coli, R477/100, Table 1, read-out: Antibacterial activity MIC E. coli R477/100
[17] = Table 1, read-out: Translation inhibition Prokaryotic system IC50
[18] = HFF (human foreskin fibroblast) cells, Table 2
[19] = Bacillus subtilis, ATCC6633, Table 2, read-out: Antibacterial activity MIC B. subtilis ATCC6633
[20] = Table 2, read-out: Antibacterial activity MIC B. subtilis ATCC6633
[21] = Table 2, read-out: Antibacterial activity MIC E. coli R477/100

Row | SMILES | IC50 [1, 9] [nM] | IC50 [1, 10] [nM] | in vitro readthrough activity (stop codon suppression level) [4] | IC50 [5, 11] [nM] | IC50 [5, 12] [nM] | Prokaryotic versus Eukaryotic selectivity IC50^Euk/IC50^Pro [1] | weaker inhibitors of prokaryotic translation than gentamicin and paromomycin [6] | observed efficacy of aminoglycoside-induced readthrough, order [7] | CC50 [8] [mM] | CC50 (HEK-293 cells) [mM] | MIC (B. subtilis ATCC6633; [20]) [µM] | MIC (E. coli R477/100; [21]) [µM] | also measured
1 | CN[C@H]1[C@@H](O)C(OC2[C@H](N)CC(N)[C@@H](O[C@H]3OC(C(C)O)[C@@H](O)[C@H](O)C3N)[C@@H]2O)OCC1(C)O (some centres unmarked) [G418, reference compound] | 2000 ± 300 | 2000 | the strongest readthrough inducer | 9 ± 2 | 9 ± 2 |  |  |  |  |  |  |  | more selective to prokaryotic versus eukaryotic ribosome [1]: 225 fold; CC50 ([2]; Table 2): 1.59 ± 0.14 mM; CC50 ([3]; Table 2): 1.31 ± 0.06 mM; MIC (B. subtilis ATCC6633; Bacillus subtilis, ATCC6633, read-out: Antibacterial activity MIC B. subtilis ATCC6633): < 1.25 µM; MIC (E. coli R477/100; Escherichia coli, R477/100, read-out: Antibacterial activity MIC E. coli R477/100): 9 µM (≈ 4.47 µg/mL); LD50 against human fibroblast cells (human fibroblast cells): 0.04 mg/mL
2 | NC[C@H]1O[C@@H](O[C@@H]2C(O)[C@H](N)CC(N)[C@H]2O[C@H]2OC(CO)[C@@H](O)[C@H](O)C2N)C(O)[C@H]1O (some centres unmarked) [NB30, reference compound] |  | 31000 ± 4000 |  |  | 460 ± 50 | 68 | about 10 fold |  |  |  |  |  | IC50 [1, 13]: 31000 nM; CC50 [2, 14]: 21.8 ± 0.9 mM; CC50 ([3]; HEK-293 cells, Table 1): 21.4 mM; MIC (B. subtilis ATCC6633; [15]): 100 µM; MIC (E. coli R477/100; [16]): 790 µM (≈ 359 µg/mL); IC50 [5, 17]: 460 ± 50 nM
3 | NCC[C@H](O)C(=O)N[C@@H]1CC(N)[C@@H](O[C@H]2OC(CO)[C@@H](O)[C@H](O)C2N)[C@H](O[C@@H]2O[C@H](CN)[C@H](O)C2O)C1O (some centres unmarked) [NB54, reference compound] |  | 24000 ± 1000 |  |  | 160 ± 20 | 151 | about 10 fold | NB122≥NB123>NB54>gentamicin |  |  |  |  | IC50 [1, 13]: 24000 nM; CC50 [2, 14]: 7.8 ± 0.4 mM; CC50 ([3]; HEK-293 cells, Table 1): 6.1 mM; MIC (B. subtilis ATCC6633; [15]): 70 µM; MIC (E. coli R477/100; [16]): 588 µM (≈ 327 µg/mL); IC50 [5, 17]: 160 ± 20 nM
4 | C[C@@H](O)C1O[C@H](O[C@@H]2C(N)C[C@@H](N)[C@@H](O)C2O[C@@H]2O[C@H](CN)[C@H](O)C2O)[C@@H](N)C(O)[C@@H]1O (some centres unmarked) [NB74, reference compound] |  |  |  | 1130 ± 120 | 1130 ± 120 |  | about 10 fold | NB124>NB125>NB74>gentamicin |  |  |  |  | CC50 [2, 18]: 21.3 ± 1.72 mM; CC50 ([3]; HEK-293 cells, Table 2): 22.2 ± 1.06 mM; MIC (B. subtilis ATCC6633; [19]): 42 µM (≈ 19.7 µg/mL)
5 | C[C@@H](O)C1O[C@H](O[C@@H]2C(N)C[C@@H](NC(=O)[C@@H](O)CCN)[C@@H](O)C2O[C@@H]2O[C@H](CN)[C@H](O)C2O)[C@@H](N)C(O)[C@@H]1O (some centres unmarked) [NB84, reference compound] | 2800 ± 300 | 2800 ± 300 |  | 980 ± 70 | 980 ± 70 | 2.9 | about 10 fold | NB127 NB128>NB84>gentamicin |  |  |  |  | CC50 [2, 18]: 16.3 ± 0.47 mM; CC50 ([3]; HEK-293 cells, Table 2): 5.77 ± 0.68 mM; MIC (B. subtilis ATCC6633; [19]): 70 µM (≈ 39.9 µg/mL); MIC (E. coli R477/100; Escherichia coli, R477/100, Table 2, read-out: Antibacterial activity MIC E. coli R477/100): 556 µM (≈ 317 µg/mL)
6 | C[C@@H](O)C1O[C@H](O[C@@H]2C(N)C[C@@H](N)C(O)[C@H]2O[C@@H]2O[C@H]([C@@H](C)N)[C@H](O)C2O)C(N)[C@@H](O)[C@@H]1O (stereo partly drawn) [NB125, 6′-(R)-Methyl-5-O-(5-amino-5,6-dideoxy-β-D-allofuranosyl)-paromamine] | 7960 ± 270 | 7960 ± 270 | smaller comparatively | 1860 ± 173 | 1860 ± 173 | 4.3 |  | NB124>NB125>NB74>gentamicin | 7.59 ± 0.18 | 16.5 ± 3.1 | 96 (≈ 46.3 µg/mL) | 1536 (≈ 741 µg/mL) | 
7 | CC(N)C1OC(OC2C(O)C(NC(=O)C(O)CCN)CC(N)C2OC2OC(C(C)O)C(O)C(O)C2N)C(O)C1O [NB127, 6′-(R)-Methyl-5-O-(5-amino-5,6-dideoxy-α-L-talofuranosyl)-1-N—[(S)-4-amino-2-hydroxy-butanoyl] paromamine] | 730 ± 70 | 730 ± 70 | significantly stronger readthrough inducers than the corresponding counterparts | 1750 ± 274 | 1750 ± 274 | 0.4 |  | NB127 NB128>NB84>gentamicin | 6.48 ± 0.26 | 5.09 ± 0.27 | 192 (≈ 112 µg/mL) | 384 (≈ 224 µg/mL) | 
8 | C[C@@H](N)[C@H]1O[C@@H](O[C@@H]2[C@@H](O)[C@H](NC(=O)[C@@H](O)CCN)C[C@H](N)[C@H]2O[C@H]2O[C@H]([C@@H](C)O)[C@@H](O)[C@H](O)[C@H]2N)[C@H](O)[C@@H]1O [NB128, 6′-(R)-Methyl-5-O-(5-amino-5,6-dideoxy-β-D-allofuranosyl)-1-N—[(S)-4-amino-2-hydroxy-butanoyl] paromamine] | 890 ± 70 | 890 ± 70 | significantly stronger readthrough inducers than the corresponding counterparts | 1750 ± 145 | 1750 ± 145 | 0.5 |  | NB127 NB128>NB84>gentamicin | 2.78 ± 0.11 | 5.35 ± 0.31 | 96 (≈ 56 µg/mL) | 384 (≈ 224 µg/mL) | 
